Reference: US7041639B2, “Depsipeptide and congeners thereof for use as immunosuppressants” (XCYTE Therapies, Inc., priority 1999, dated 2006)

Tests used:
CD4 cells = assay: Intracellular DNA content by propidium iodide staining (cell cycle); format: cell-based, human; details: 3×28 beads 24 hours; 10 to 100 ng/ml; FIG. 12
Method: Unstimulated and stimulated (3×28 bead stimulation) CD4 cells were incubated with varying concentrations FR901228 and the intracellular DNA content was measured by staining with propidium iodide (PI) using standard procedures. In brief, the cells were stained with a mixture of 1 μg/ml PI and 0.03% saponin in PBS for about 20 to 30 minutes. […] Accordingly, FR901228 appears to inhibit the cell cycle of activated T-cells prior to entry of S-phase.

[1] = tested on: peripheral blood lymphocyte (PBL); assay: Proliferation by MTT assay, PBL cultures; format: cell-based, human
Method: Cells isolated from human blood are grown in X-vivo media (Biowhittaker Inc., Walkersville, Md.) and depending on use supplemented with or without 20 U/ml IL-2 (Boehringer Mannheim, Indianapolis, Ind.) and supplemented with 5% human serum (Biowhittaker), 2 mM Glutamine (Life Technologies, Rockville, Md.) and 20 mM HEPES (Life Technology). Jurkat E6-1 cells (ATCC, Manassas, Va.) are grown in RPMI 1640 (Life Technologies) supplemented with 10% fetal bovine serum (FBS) (Biowhittaker), 2 mM glutamine (Life Technologies), […] (Life Technologies), and […] (Life Technologies).
Buffy coats from healthy human volunteer donors are obtained (American Red Cross, Portland, Oreg.). Peripheral blood mononuclear cells (PBMC) are obtained using Lymphocyte Separation Media (ICN Pharmaceuticals, Costa Mesa, Calif.) according to the manufacturers' instructions.
Peripheral blood lymphocytes (PBL) are obtained from the PBMC fraction by incubation in a culture flask (Costar, Pittsburgh, Pa.) or with uncoated Dynabeads (Dynal, Oslo, Norway), 1×10^8 cells/ml, 2 beads/cell, 2 h at 37° C. Monocytes and macrophages are removed by adherence to the culture flask or phagocytoze the paramagnetic beads that are depleted by magnetic cell separation according to the manufacture's instruction (Dynal). […] The purity of CD4 cells are routinely 91–95% as measured by flow cytometry. […]

A1.1 T-cell hybridoma = details: Wang et al., Oncogene 1998; cited from earlier work
[2] = tested on: CD154 promoter in Jurkat T-cells; assay: GFP reporter under control of the CD154 promoter; format: cell-based; details: 24 hours 3×28 beads; 0, 10, 50, 100 ng/ml; FIG. 11
Method: In this experiment Jurkat T-cells were stabily transfected with a vector construct (p-EGFP1, Clonetech) wherein the nucleotide sequence encoding green fluorescent protein was operably linked to the CD154 promoter cloned from Jurkat cells. Following selection of cells containing the vector of interest, the cells were subjected to stimulation for 24 hours with 3×28 beads in the presence of varying concentrations (0 to 100 ng/ml) of FR901228. Fluorescence was then detected using flow cytometry.

T-cells = assay: Cell survival / viability (sub-G1 DNA, membrane integrity, propidium iodide exclusion); format: cell-based, human
Method: Cells are stimulated by three different methodologies 1) Dynabeads (M-450) covalently coupled to anti-CD3 (OKT-3) and anti-CD28 (9.3) antibodies (3×28 beads) according to the manufacturer's instructions (Dynal), 3 beads/cell, 2) Ionomycin (Calbiochem, La Jolla, Calif.) (100 ng/ml) and phorbol 12-myristate-13-acetate (PMA) (Calbiochem) (10 ng/ml), 3) allogeneic dendritic cells (25,000 dendritic cells/200,000 CD4 cells). All cells are stimulated at a concentration of 1×10^6 cells/ml. Cells are incubated with compounds of structure (I) (e.g., FR901228) (NCI, Bethesda, Md.) for 1 to 2 hours prior to stimulation as outlined above. Proliferation assays are conducted in quadruplicate in 96 well flat-bottom plates. Cells are stimulated at 1×10^6 cells/ml in a final volume of 200 μl. Proliferation is measured by MTT assay (MTT assay kit, Chemicon International Inc., Temecula, Calif.) at day 3 (stimulation method 1 and 2) or at day 6 (stimulation method 3), and results are presented as mean value of quadruplicates. PBL cultures or purified CD4 cell cultures are stimulated with 3×28 beads, ionomycin/PMA or allogenic dendritic cells. […] Further, […] cell survival is not affected by FR901228, as assessed by sub-G1 DNA measurement and integrity of the cell membrane (FIG. 5D). […]

**Q.** Which “DNA synthesis in stimulated CD4 cells” value (CD4 cells) does the source give for `C/C=C1\NC(=O)[C@H]2CSSCC/C=C/[C@H](CC(=O)N[C@H](C(C)C)C(=O)N2)OC(=O)[C@H](C(C)C)NC1=O` [FR901228] here?
**A.** The value was “DNA synthesis does not take place”.

**Q.** And the “inhibition of peripheral blood lymphocyte (PBL) proliferation” value ([1]; stimulation by beads having anti-CD3 and anti-CD28 antibodies, FIG. 1)?
**A.** Its value is “dose dependent inhibition”.

**Q.** What about the “inhibition of peripheral blood lymphocyte (PBL) proliferation” value ([1]; stimulation with Ionomycin/PMA, FIG. 2) of the same compound?
**A.** Its value is “dose dependent inhibition”.

**Q.** What about the “CD3-induced IL-2 production” value (A1.1 T-cell hybridoma) of the same compound?
**A.** The value was “did not inhibit”.

**Q.** And the “induction of GFP expression under CD154 promoter” value [2]?
**A.** Its value is “only cells having 0 ng/ml of FR901228 showed induction of GFP expression”.

**Q.** And the “cell survival by sub-G1 DNA measurement and integrity of the cell membrane” value (T-cells; FIG. 5D)?
**A.** The value was “not affected”.

**Q.** And the “cell viability by propidium iodide (PI) exclusion” value (T-cells; concentrations up to 100 ng/ml)?
**A.** The value was “not significantly affected”.
